Reference: PMC8305076, “Comprehensive Evaluation of Biological Effects of Pentathiepins on Various Human Cancer Cell Lines and Insights into Their Mode of Action” (International Journal of Molecular Sciences, 2021)
Where two headings read alike, the source gives them in different places.

Tests used:
bovine erythrocyte GPx1 = molecular target: T1, bovine erythrocyte GPx1 (Bos taurus, UniProt P00435); assay: GPx1 enzyme activity assay (NADPH-coupled, t-BHP substrate); type: biochemical; design: key to GPx1 inhibition: no impact (0); weak impact (+); strong impact (++); conditions: for IC50: n ≥ 3; for GPx1 inhibition: summary grade
T1 construct: the isolated enzyme from bovine erythrocytes; purchased Sigma-Aldrich (Taufkirchen, Germany); host or cells: isolated from bovine erythrocytes
T1 sequence (P00435 1-205): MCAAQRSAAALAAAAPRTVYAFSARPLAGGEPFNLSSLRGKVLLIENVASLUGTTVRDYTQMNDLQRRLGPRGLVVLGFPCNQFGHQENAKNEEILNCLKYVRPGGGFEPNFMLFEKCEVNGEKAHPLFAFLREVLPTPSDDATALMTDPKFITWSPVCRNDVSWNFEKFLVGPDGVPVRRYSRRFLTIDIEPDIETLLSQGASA
From the text: The inhibition of GPx1 by pentathiepins has already been reported by us previously. […] The resulting glutathione disulfide (GSSG) was reduced back to GSH by glutathione reductase (GR), thereby converting NADPH to NADP^+, which can be photometrically monitored at λ = 340 nm. The rate of NADPH consumption was used to quantify GPx1 enzyme activity. Dose-response graphs are presented in Figure 5a, and the corresponding IC50 values in Table 1. Relative IC50 describing the half-maximal inhibition of the enzyme were derived from the inflection point of the sigmoidal shaped graphs. Absolute IC50 was calculated via interpolation of the standard curve resulting in the concentration at which 50% of the GPx1 was inhibited.
The potential of the pentathiepins to inhibit the GPx1 was assessed with an enzymatic assay as described previously. It is based on the catalytic cycle of the enzyme coupled to an NADPH detection reaction. Here, a bovine erythrocyte GPx1 with a sequence similarity of 87% to the human homolog was used for reasons of affordability. The GPx1 was treated with either vehicle (solvent DMF) or the respective pentathiepin, and the reaction started by addition of tert-butylhydroperoxide (t-BHP). For the assay, all solutions were prepared with potassium phosphate buffer (50 mM, pH 7.4, EDTA 1.1 mM, Triton-X 0.01%), except for the inhibitors and t-BHP, which were diluted in DMF or water, respectively. First, 180 µL of a 0.125 U/mL GPx1 solution and 30 µL of a serial dilution of the putative inhibitor dissolved in DMF were added in triplicate to the wells of a UV-transparent 96-well plate. As a negative control, only DMF was appliedat the same dilution as the inhibitor solution.. All reagents including the GPx1 solution were pipetted. Then, 30 µL of a GSH solution (2.5 mM) and 30 µL of a GR/NADPH solution (2 U/mL; 2.0 mM) were added per well. The reaction was started by adding 30 µL of a t-BHP solution (5.0 mM). […] GPx1 activity was indirectly measured by monitoring the decrease of NADPH at λ = 340 nm for 30 min every 15 s at room temperature. The GPx1 activity of the treated samples was related to the solvent treated control and the relative activities analyzed in Prism 7 (GraphPad) via dose–response graphs and the calculation of the inflection point corresponding to the relative IC50 (half-maximal inhibitory concentration). The relative IC50 corresponds to the concentration at which half of the effect of the test compound is achieved. An absolute IC50, where 50% of the enzyme is inhibited, was calculated via interpolation of the sigmoidal graph.

[1] = tested on: HAP-1, HAP-1.KO.GPx1, A2780 and Siso; assay: adapted MTT assay with ferrostatin-1 (ferroptosis); type: cell-based, human; design: key: no impact (0); weak impact (+); strong impact (++); conditions: summary grade
Procedure: Not only apoptosis may contribute to the mainly ROS-based cytotoxicity of the pentathiepins but also ferroptosis, which derives from iron-dependent oxidative damage of the cell membrane. This form of programmed cell death is initiated via lipid peroxidation, which is normally held in check by the membrane-bound GPx4, an isoform of GPx1. As pentathiepins are potent GPx1 inhibitors, we indirectly investigated the possible role of GPx4 inhibition by precluding ferroptosis. Here, cells were incubated with a serial dilution of the respective pentathiepin, and either ferrostatin-1 (Fer-1) or vehicle control (DMSO) was added; Fer-1 is an established inhibitor of ferroptosis. The cell viability was measured after 48 h, and the activity of the compounds after adding or omitting Fer-1 was compared (Figure S50).
This experiment was performed similarly to that described in the previous section. To assess the importance of ferroptosis for cell death, a co-incubation of the cells with a serial dilution of the pentathiepins and ferrostatin-1 (Fer-1) as a known inhibitor of ferroptosis was performed. As negative control, the cells were incubated with the serial dilution of the test compounds and an amount of DMSO corresponding to the Fer-1 treatment solution. If ferroptosis were to be involved in the cytotoxicity of the compounds, the addition of Fer-1 should protect cells from the treatment with pentathiepin. […] The IC50 values were calculated as described above, and Fer-1-treated cells were set in relation to those without the additive.
Figure S50: Relative IC 50 in the four human cancer cell lines HAP -1, HAP -1.KO.GPx1, A2780 and Siso after treatment with pentathiepins 1-6 with either vehicle control (DMSO) or 1.5 or 6.0 µM ferrostatin -1 (Fer -1), respectively, for 48 h. The IC 50 of Fer-1-treated cells were relat ed to DMSO-treated samples (set to 1, dashed line) […]
(1 picture or pasted object on this page, not shown here)

[2] = absolute IC50 (interpolation, 50% of GPx1 inhibited), read-out: Abs. IC50 (SD)
[3] = relative IC50 (inflection point of dose-response graph), t-BHP substrate, read-out: Rel. IC50 (CI 95%)
[4] = residual GPx1 activity at highest tested concentration of 12.5 µM

Structure (SMILES) | IC50 (bovine erythrocyte GPx1; [2]) | IC50 (bovine erythrocyte GPx1; [3]) | remaining activity at 12.5 µM (bovine erythrocyte GPx1; [4]) | Residual Activity (%) (bovine erythrocyte GPx1; residual GPx1 activity at highest tested concentration of 12.5 µM, 12.5 µM) | GPx1 inhibition (bovine erythrocyte GPx1) | decrease of the activity of the bovine GPx (bovine erythrocyte GPx1; at 12.5 µM) | Ferroptosis [1]
CCOc1c2c(c3cnc4[nH]c(-c5ccc(OC)cc5)cc4n13)SSSSS2 [Compound 1, 11-Ethoxy-2-(4-methoxyphenyl)-3H-[1,2,3,4,5]pentathiepino[6′,7′:3,4]pyrrolo[1,2-a]pyrrolo[2,3-e]pyrazine] | 1490 nM | 920 nM | 16% | 16.4% | ++ |  | 0
CCOc1c2c(c3ccc(C(=O)N(CC)CC)cn13)SSSSS2 [Compound 4, 6-Ethoxy-N,N’-diethyl-[1,2,3,4,5]pentathiepino[6,7-a]indolizine-9-carboxamide] | 750 nM | 600 nM | 27.9% |  | ++ |  | 0
CCOc1c2c(c3ccc(C(=O)N4CCN(S(=O)(=O)c5ccc(C)cc5)CC4)cn13)SSSSS2 [Compound 6, (6-Ethoxy-[1,2,3,4,5]pentathiepino[6,7-a]indolizin-9-yl)(4-tosylpiperazinyl)methanone] | > 12500 nM | > 12500 nM | 53.3% |  | 0 | ≤ 50% | 0

Continued, in another order:

IC50 (bovine erythrocyte GPx1; [2]) | IC50 (bovine erythrocyte GPx1; [3]) | remaining activity at 12.5 µM (bovine erythrocyte GPx1; [4]) | Residual Activity (%) (bovine erythrocyte GPx1; residual GPx1 activity at highest tested concentration of 12.5 µM, 12.5 µM) | GPx1 inhibition (bovine erythrocyte GPx1) | decrease of the activity of the bovine GPx (bovine erythrocyte GPx1; at 12.5 µM) | Structure (SMILES) | Ferroptosis [1]
3250 nM | 2280 nM | 27.5% |  | + |  | CCOc1c2c(c3ccc(C(=O)N4CCCCC4)cn13)SSSSS2 [Compound 2, (6-Ethoxy-[1,2,3,4,5]pentathiepino[6,7-a]indolizin-9-yl)(piperidinyl)methanone] | 0
910 nM | 560 nM | 29% |  | ++ |  | CCOc1c2c(c3ccc(C(=O)N4CCOCC4)cn13)SSSSS2 [Compound 3, (6-Ethoxy-[1,2,3,4,5]pentathiepino[6,7-a]indolizin-9-yl)(morpholino)methanone] | 0
1170 nM | 630 nM | 28.7% |  | ++ |  | CCOc1c2c(c3ccc(C(=O)N4CCN(C(=O)c5ccc(F)cc5)CC4)cn13)SSSSS2 [Compound 5, (6-Ethoxy-[1,2,3,4,5]pentathiepino[6,7-a]indolizin-9-yl)(4-(4-fluorobenzoyl)piperazinyl)methanone] | 0
